Tested on: diarrhea-predominant IBS subjects
Assay: 3007 Study: open-label 52-week safety study, adverse events and withdrawals
Settings: Placebo/Cilansetron 2 mg

## Cc1nccn1C[C@H]1CCc2c(c3cccc4c3n2CCC4)C1=O [cilansetron, (R)-(−)-4,5,6,8,9,10-hexahydro-10-[(2-methyl-1H-imidazol-1-yl)methyl]-11H-pyrido-[3,2,1-jk]-carbazol-11-one]
  TEAE: Protein Urine Present: 1 (<1%) n (%)
  TEAE: Pruritus Ani: 1 (<1%) n (%)
  TEAE: Rectal Cramps: 0 n (%)
  TEAE: Rectal Disorder NOS: 1 (<1%) n (%)
  TEAE: Rectal Haemorrhage: 4 (1%) n (%)
  TEAE: Rectal Tenesmus: 2 (<1%) n (%)
  TEAE: Red Blood Cell Analyses: 0 n (%)
  TEAE: Red Blood Cells Urine: 1 (<1%) n (%)
  TEAE: Renal Bruit: 1 (<1%) n (%)
  TEAE: Renal Function Analyses: 3 (1%) n (%)
  TEAE: Reproductive Organ and Breast Histopathology Procedures: 0 n (%)
  TEAE: Respiratory Tract Infection NOS: 0 n (%)
  TEAE: Rheumatoid Arthritis: 1 (<1%) n (%)
  TEAE: Rheumatoid Arthritis Aggravated: 1 (<1%) n (%)
  TEAE: Rheumatoid Arthropathies: 2 (<1%) n (%)
  TEAE: Rhinoviral Infections: 10 (4%) n (%)
  TEAE: Rib Fracture: 0 n (%)
  TEAE: Road Traffic Accident: 0 n (%)
  TEAE: Rotator Cuff Syndrome: 1 (<1%) n (%)
  TEAE: Seizures and Seizure Disorders NEC: 0 n (%)
  TEAE: Sinus Headache: 0 n (%)
  TEAE: Sinusitis Acute NOS: 1 (<1%) n (%)
  TEAE: Sinusitis NOS: 13 (5%) n (%)
  TEAE: Site Specific Injuries NEC: 0 n (%)
  TEAE: Skeletal and Cardiac Muscle Analyses: 8 (3%) n (%)
  TEAE: Skin Fungal Infection NOS: 0 n (%)
  TEAE: Skin Infection NOS: 1 (<1%) n (%)
  TEAE: Skin Structures and Soft Tissue Infections: 2 (<1%) n (%)
  TEAE: Sleep Apnoea Syndrome: 2 (<1%) n (%)
  TEAE: Sleep Apnoeas: 2 (<1%) n (%)
  TEAE: Soft Tissue Disorders NEC: 0 n (%)
  TEAE: Somnolence: 1 (<1%) n (%)
  TEAE: Speech and Language Abnormalities: 1 (<1%) n (%)
  TEAE: Spinal Cord and Nerve Root Disorders NEC: 1 (<1%) n (%)
  TEAE: Spondylitic Myelopathy: 1 (<1%) n (%)
  TEAE: Spondyloarthropathies: 0 n (%)
  TEAE: Spondylosis: 0 n (%)
  TEAE: Staphylococcal Infection NOS: 0 n (%)
  TEAE: Staphylococcal Infections: 0 n (%)
  TEAE: Status Epilepticus: 0 n (%)
  TEAE: Stomach Discomfort: 1 (<1%) n (%)
  TEAE: Streptococcal Infection NOS: 0 n (%)
  TEAE: Streptococcal Infections: 3 (1%) n (%)
  TEAE: Stress Fracture: 0 n (%)
  TEAE: Temporomandibular Joint Disorder NOS: 0 n (%)
  TEAE: Tendon Disorders: 3 (1%) n (%)
  TEAE: Tendonitis: 2 (<1%) n (%)
  TEAE: Tension Headaches: 0 n (%)
  TEAE: Thoracic Cage Fractures and Dislocations: 0 n (%)
  TEAE: Tinea Cruris: 1 (<1%) n (%)
  TEAE: Tinea Infections: 1 (<1%) n (%)
  TEAE: Tinea Pedis: 0 n (%)
  TEAE: Tissue Enzyme Analyses NEC: 1 (<1%) n (%)
  TEAE: Tongue Coated: 0 n (%)
  TEAE: Tongue Signs and Symptoms: 0 n (%)
  TEAE: Tooth Abscess: 1 (<1%) n (%)
  TEAE: Tooth Disorder NOS: 0 n (%)
  TEAE: Tooth Impacted: 0 n (%)
  TEAE: Tooth Infection: 1 (<1%) n (%)
  TEAE: Toothache: 1 (<1%) n (%)
  TEAE: Total Number of Subjects with at Least One TEAE: 217 (78%) n (%)
  TEAE: Transient Global Amnesia: 0 n (%)
  TEAE: Tremor: 1 (<1%) n (%)
  TEAE: Tremor (Excl Congenital): 1 (<1%) n (%)
  TEAE: Trigger Finger: 1 (<1%) n (%)
  TEAE: Triglyceride Analyses: 4 (1%) n (%)
  TEAE: Umbilical Hernia NOS: 0 n (%)
  TEAE: Umbilical Hernias: 0 n (%)
  TEAE: Upper Limb Fractures and Dislocations: 1 (<1%) n (%)
  TEAE: Upper Respiratory Tract Infection NOS: 8 (3%) n (%)
  TEAE: Upper Respiratory Tract Infections - Pathogen Class Unspecified: 19 (7%) n (%)
  TEAE: Urinalysis NEC: 6 (2%) n (%)
  TEAE: Urinary Tract Infection NOS: 10 (4%) n (%)
  TEAE: Urinary Tract Infections: 12 (4%) n (%)
  TEAE: Urine Analysis Abnormal NOS: 0 n (%)
  TEAE: Urine Bilirubin Increased: 1 (<1%) n (%)
  TEAE: Urine Ketone Body Present: 2 (<1%) n (%)
  TEAE: Urine Leukocyte Esterase Positive: 2 (<1%) n (%)
  TEAE: Urobilin Urine Present: 0 n (%)
  TEAE: Vascular Auscultatory Investigations: 2 (<1%) n (%)
  TEAE: Vascular Tests NEC (Incl Blood Pressure): 2 (<1%) n (%)
  TEAE: Vasovagal Attack: 0 n (%)
  TEAE: Viral Infection NOS: 2 (<1%) n (%)
  TEAE: Viral Infections NEC: 8 (3%) n (%)
